Common to all, as to test: level (log10 ratio to DMSO vehicle control); higher = higher biomarker level / cell amount than vehicle control
What all share (details): in DMSO

Compound in one assay: O=C(O)C(F)(F)C(F)(F)C(F)(F)F [Perfluorobutanoic acid]
The method, then:
(§1)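 BioMAP Diversity Plus panel of 12 human primary cell co-culture systems (3C, 4H, LPS, SAg, BT, BF4T, BE3C, CASM3C, HDF3CGF, KF3CT, MyoF, Mphg). Compounds were added 1 h before stimulation and left for 24 h (MyoF 48 h; BT 72 h for soluble read-outs or 6 d for IgG). Biomarkers were read by ELISA, cytotoxicity by SRB, PBMC viability and proliferation by Alamar Blue. Each well value was divided by the mean of 8 DMSO control wells on the same plate and log10 transformed; duplicate blinded samples were tested at 4 concentrations.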

Compound in assay [1]: O=C(O)C(F)(F)OC(F)(F)C(F)(F)OC(F)(F)F [Perfluoro-3,6-dioxaheptanoic acid]
The method, then: as §1

Compound in assay [2]: FC(F)(F)C(F)(F)C(F)(F)C(F)(F)C(F)(F)CCI [1-Iodo-1H,1H,2H,2H-perfluoroheptane]
The method, then: as §1

Compound in assay [3]: OCCC(F)(F)C(F)(F)C(F)(F)C(F)(F)C(F)(F)C(F)(F)F [6:2 Fluorotelomer alcohol]
The method, then:
as §1

Compound in another assay: O=C(O)C(F)(F)C(F)(F)F [Perfluoropropanoic acid]
The method, then: as §1

Compound in a further assay: FC(F)(F)C(F)(F)C(F)(F)C(F)(F)C(F)(F)C(F)(F)I [Perfluoro-1-iodohexane]
The method, then: as §1

Compound in assay [4]: OCC(F)(F)OC(F)(F)C(F)(F)OC(F)(F)CO [1H,1H,8H,8H-Perfluoro-3,6-dioxaoctane-1,8-diol]
The method, then:
as §1

± gives the standard deviation of the averaged measurements.

Here are results for four test systems from the supplement of paper PMC10331698.

For lMphg:CD69, the “level (log10)” value in the assay with Perfluorobutanoic acid (6700 nM) came to 0.0505 ± 0.066; with Perfluorobutanoic acid (20000 nM), 0.0455 ± 0.0021; in the assay with Perfluorobutanoic acid (60000 nM) it was 0.087 ± 0.1; in assay [1] (6700 nM), 0.0255 ± 0.069; in assay [1] (20000 nM) it was 0.0085 ± 0.033; in assay [1] (60000 nM), 0.058 ± 0.0085. Moreover, the “level (log10)” value in assay [2] (6700 nM) is -0.0365 ± 0.083; in assay [2] (20000 nM), -0.063 ± 0.072; in assay [2] (60000 nM), -0.0405 ± 0.066; in assay [3] (6700 nM) it was -0.0205 ± 0.0078; in assay [3] (20000 nM) it was -0.017 ± 0.0028; with Perfluoropropanoic acid (6700 nM), 0.0105 ± 0.059. The “level (log10)” value with Perfluoropropanoic acid (20000 nM) was -0.022 ± 0.025; in the assay with Perfluoropropanoic acid (60000 nM), 0.0045 ± 0.029; with Perfluoro-1-iodohexane (6700 nM) it was -0.031 ± 0.048; with Perfluoro-1-iodohexane (20000 nM), -0.0425 ± 0.06; in the assay with Perfluoro-1-iodohexane (60000 nM), -0.031 ± 0.045; in assay [4] (6700 nM) it was -0.0305 ± 0.0064. Further, the figures for the “level (log10)” value in assay [4] (20000 nM) and in assay [4] (60000 nM) were -0.041 ± 0.025 and -0.0145 ± 0.13, respectively.
Turning to lMphg:CD106/VCAM-1, the “level (log10)” value with Perfluorobutanoic acid (6700 nM) is -0.0165 ± 0.025; with Perfluorobutanoic acid (20000 nM), -0.007 ± 0.034; in the assay with Perfluorobutanoic acid (60000 nM), -0.0085 ± 0.022; in assay [1] (6700 nM) it was -0.004 ± 0.02; in assay [1] (20000 nM), 0.007 ± 0.014; in assay [1] (60000 nM), -0.004 ± 0.04. Further, the “level (log10)” value in assay [2] (6700 nM) is 0.005; in assay [2] (20000 nM) it was -0.004 ± 0.0042; in assay [2] (60000 nM), -0.017 ± 0.011; in assay [3] (6700 nM), -0.016 ± 0.0028; in assay [3] (20000 nM), -0.0155 ± 0.013; with Perfluoropropanoic acid (6700 nM) it was -0.008 ± 0.013. Also, the “level (log10)” value is 0.0185 ± 0.0035 in the assay with Perfluoropropanoic acid (20000 nM); 0.023 ± 0.016 with Perfluoropropanoic acid (60000 nM); 0.0085 ± 0.032 with Perfluoro-1-iodohexane (6700 nM); -0.0035 ± 0.018 with Perfluoro-1-iodohexane (20000 nM); -0.003 ± 0.0099 in the assay with Perfluoro-1-iodohexane (60000 nM); -0.0355 ± 0.05 in assay [4] (6700 nM). Moreover, the “level (log10)” value in assay [4] (20000 nM) is -0.0035 ± 0.012; in assay [4] (60000 nM), -0.028 ± 0.034.
On to lMphg:CXCL8/IL-8, for which the “level (log10)” value with Perfluorobutanoic acid (6700 nM) was -0.022 ± 0.014; with Perfluorobutanoic acid (20000 nM), -0.017 ± 0.0028; with Perfluorobutanoic acid (60000 nM), 0.0165 ± 0.04; in assay [1] (6700 nM) it was 0.026 ± 0.017; in assay [1] (20000 nM), 0.068 ± 0.051; in assay [1] (60000 nM), 0.167 ± 0.074. Also, the “level (log10)” value in assay [2] (6700 nM) was 0.005 ± 0.0057; in assay [2] (20000 nM), -0.01 ± 0.0099; in assay [2] (60000 nM) it was 0.0495 ± 0.025; in assay [3] (6700 nM), -0.0115 ± 0.056; in assay [3] (20000 nM), -0.0125 ± 0.018; with Perfluoropropanoic acid (6700 nM), 0.0055 ± 0.0078. Also, the “level (log10)” value was 0.017 ± 0.018 in the assay with Perfluoropropanoic acid (20000 nM); 0.0175 ± 0.043 in the assay with Perfluoropropanoic acid (60000 nM); -0.0075 ± 0.039 with Perfluoro-1-iodohexane (6700 nM); 0.0325 ± 0.016 with Perfluoro-1-iodohexane (20000 nM); 0.0585 ± 0.064 with Perfluoro-1-iodohexane (60000 nM); 0.0065 ± 0.079 in assay [4] (6700 nM). Besides, the “level (log10)” value was found to be 0.007 ± 0.072 in assay [4] (20000 nM) and 0.0235 ± 0.1 in assay [4] (60000 nM).
Turning to lMphg:IL-1alpha, the “level (log10)” value with Perfluorobutanoic acid (6700 nM) was 0.002 ± 0.041; in the assay with Perfluorobutanoic acid (20000 nM), 0.022 ± 0.079; in the assay with Perfluorobutanoic acid (60000 nM), 0.0365 ± 0.076; in assay [1] (6700 nM), -0.0025 ± 0.046; in assay [1] (20000 nM), 0.007 ± 0.035; in assay [1] (60000 nM), -0.005 ± 0.027. The “level (log10)” value in assay [2] (6700 nM) was 0.031 ± 0.021; in assay [2] (20000 nM), -0.01 ± 0.018; in assay [2] (60000 nM) it was 0.0305 ± 0.016; in assay [3] (6700 nM), 0.0025 ± 0.022; in assay [3] (20000 nM), 0.019 ± 0.0085; with Perfluoropropanoic acid (6700 nM), -0.0235 ± 0.00071. Also, the “level (log10)” value was -0.019 ± 0.038 in the assay with Perfluoropropanoic acid (20000 nM); 0.035 ± 0.027 with Perfluoropropanoic acid (60000 nM); 0.008 ± 0.0057 with Perfluoro-1-iodohexane (6700 nM); 0.0525 ± 0.019 in the assay with Perfluoro-1-iodohexane (20000 nM); 0.027 ± 0.011 with Perfluoro-1-iodohexane (60000 nM); -0.027 ± 0.09 in assay [4] (6700 nM). In addition, the “level (log10)” value was -0.036 ± 0.035 in assay [4] (20000 nM) and -0.021 ± 0.018 in assay [4] (60000 nM).
